Measured values: US6162925A, “Antibiotic for methicillin resistant bacteria” (Research Corporation Tech., Inc., priority 1999, dated 2000)
Values after ≈ are worked out from the molar mass of the structure shown.

Tests used:
[1] = Stability of cyclization product 29; type: physicochemical
Method: To a mixture of 28 (70 mg, 0.067 mmol, 1.0 eq) and anisole (0.1 mL) was added TFA (1.0 mL). the resulting mixture was stirred for 15 min at room temperature. The TFA was evaporated and coevaporated with CH2 Cl2 to dryness. The resulting residue was dried on vacuo for 2 h and triturated with ethyl ether to give a white solid. This white solid was dissolved in THF (1.5 mL). To this solution was added triethylamine (20 μL, 0.14 mmol, 2.0 eq). After stirring 10 min., the solvent was evaporated and the resulting residue was immediately purified by PTLC (silica gel, CH2 Cl2 : EtOAc: MeOH, 4:1:0.5) to give 40 mg (67%) of 29 as a white solid. This product was unstable with a tendency to form a bicycle by-product (t1/2 is about 1 day) and was used for the next step immediately. ^1 H NMR (300 MHz, CD3 Cl/D2 O vs TMS): δ1.62 (4H, m); 2.45 (2H, m); 2.76/2.78 (3H, s); 3.32 (1H, m); 3.70 (1H, m); 3.93 (4H, m); 5.17 (6H, m); 7.32 (20H, m) ppm. IR (NaCl, film): 3381, 3258, 2934, 1765, 1713, 1646, 1608, 1504, 1452, 1252, 1186, 1096, 1063 cm^-1. MS (ES+): Calcd. for (C45 H49 N9 O11 +H)=892.4. Found (M+H)=892.4; (M+H-108)=784.3.

[2] = tested on: Escherichia coli ATCC 25922; assay: MIC, broth microdilution (NCCLS), E. coli ATCC 25922; type: cell-based; details: ATCC25922, E. coli ATCC 25922, reference strain, 35° C., 20 h, read-out: Minimal Inhibitory Concentration (MIC)
Method: (§1) Test compounds were assayed against Staphylococcus aureus FDA 209P by the 10 fold agar disc diffusion assay on BHI-plates at pH=7 and pH=9 in accordance with the procedure from the National Committee for Clinical Laboratory Standards 1989. Susceptibility testing. A panel of 16 bacteria was used to evaluate the antimicrobial activity of the compounds (Table 2). The MIC of each antimicrobial agent was determined using a microdilution method according to NCCLS standards^1. Serial twofold dilutions of antibiotics were prepared in Mueller-Hinton broth (Difco Laboratories, Detroit, Mich.). Bacteria were grown to early log phase at 35° C. (1 hours) in Mueller-Hinton broth and cultures were diluted to achieve a final inoculum of 5×10^5 CFU per ml. Microtiter plates were incubated at 35° C. for 20 h and then were read using a Thermomax microplate reader (Molecular Devices, Sunnyvale, Calif.) and a microtiter plate reading mirror. The MIC was defined as the lowest concentration of antibiotic which inhibited the development of visible growth at the end of the incubation period. The standard reference strains were Staphyloccocus aureus ATCC […], Enterococcus faecalis ATCC 29212, E. faecium ATCC 35667, Escherichia coli ATCC 25922, and Pseudomonas aeruginosa ATCC 27853. Imipenem and vancomycin were used as antibiotic controls and values for reference strains were in accordance with the NCCLS.

[3] = tested on: Enterococcus faecium ATCC 35667; assay: MIC, broth microdilution (NCCLS), E. faecium ATCC 35667; type: cell-based; details: ATCC35667, E. faecium ATCC 35667, reference strain, 35° C., 20 h, read-out: Minimal Inhibitory Concentration (MIC)
Method: as §1
(§2) Enterococcus ATCC Reference strain

[4] = tested on: Staphylococcus aureus sa ATCC 13709; assay: MIC, broth microdilution (NCCLS), S. aureus sa ATCC 13709; type: cell-based; details: ATCC13709, S. aureus sa ATCC 13709, Smith strain, 35° C., 20 h, read-out: Minimal Inhibitory Concentration (MIC)
Method: as §1

[5] = tested on: Staphylococcus aureus sa201; assay: MIC, broth microdilution (NCCLS), S. aureus sa201; type: cell-based; details: S. aureus sa201, clinical isolate Spain, methicillin resistant, β-lactamase positive, 35° C., 20 h, read-out: Minimal Inhibitory Concentration (MIC)
Method: as §1
Staphylococcus Clinical isolate,
aureus sa201 Spain resistant, β-

[6] = tested on: Staphylococcus aureus ATCC 29213; assay: MIC, broth microdilution (NCCLS), S. aureus ATCC 29213; type: cell-based; details: ATCC29213, S. aureus ATCC 29213, reference strain, 35° C., 20 h, read-out: Minimal Inhibitory Concentration (MIC)
Method: as §1
Staphylococcus ATCC Reference strain

[7] = tested on: Staphylococcus aureus ATCC 33593; assay: MIC, broth microdilution (NCCLS), S. aureus ATCC 33593; type: cell-based; details: ATCC33593, S. aureus ATCC 33593, methicillin resistant, β-lactamase positive, 35° C., 20 h, read-out: Minimal Inhibitory Concentration (MIC)
Method: as §1
Staphylococcus ATCC Methicillin
aureus ATCC 33593 resistant, β-

[8] = tested on: Enterococcus faecium BM4147; assay: MIC, broth microdilution (NCCLS), E. faecium BM4147; type: cell-based; details: E. faecium BM4147, vancomycin resistant, vanA, 35° C., 20 h, read-out: Minimal Inhibitory Concentration (MIC)
Method: as §1
Enterococcus Vancomycin
faecium BM4147 resistant, vanA

[9] = tested on: Staphylococcus aureus COL; assay: MIC, broth microdilution (NCCLS), S. aureus COL; type: cell-based; details: S. aureus COL, methicillin resistant, β-lactamase negative, 35° C., 20 h, read-out: Minimal Inhibitory Concentration (MIC)
Method: as §1
(§3) Staphylococcus Methicillin
aureus COL resistant, β-

[10] = tested on: Staphylococcus aureus PC1; assay: MIC, broth microdilution (NCCLS), S. aureus PC1; type: cell-based; details: S. aureus PC1, Type A βlactamase hyperproducer, 35° C., 20 h, read-out: Minimal Inhibitory Concentration (MIC)
Method: as §1
Staphylococcus Type A βlactamase
aureus PC1 hyperproducer

[11] = tested on: Enterococcus faecalis ATCC 29212; assay: MIC, broth microdilution (NCCLS), E. faecalis ATCC 29212; type: cell-based; details: ATCC29212, E. faecalis ATCC 29212, reference strain, 35° C., 20 h, read-out: Minimal Inhibitory Concentration (MIC)
Method: as §1, §2

[12] = tested on: Staphylococcus haemolyticus UA281; assay: MIC, broth microdilution (NCCLS), S. haemolyticus UA281; type: cell-based; details: S. haemolyticus UA281, methicillin resistant, 35° C., 20 h, read-out: Minimal Inhibitory Concentration (MIC)
Method: as §1, §3
haemolyticus UA281 resistant

Staphylococcus aureus 76 = assay: MIC, broth microdilution (NCCLS), S. aureus 76; type: cell-based; details: Staphylococcus aureus; S. aureus 76, methicillin resistant, β-lactamase positive; 35° C., 20 h; read-out: Minimal Inhibitory Concentration (MIC)
Method: as §1, §3

[13] = tested on: Enterococcus faecium efm040; assay: MIC, broth microdilution (NCCLS), E. faecium efm040; type: cell-based; details: E. faecium efm040, clinical isolate U.S.A., ampicillin resistant, 35° C., 20 h, read-out: Minimal Inhibitory Concentration (MIC)
Method: as §1
Enterococcus Clinical isolate,
faecium efm040 U.S.A. resistant

[14] = tested on: Staphylococcus aureus COL8A; assay: MIC, broth microdilution (NCCLS), S. aureus COL8A; type: cell-based; details: 20 h, read-out: Minimal Inhibitory Concentration (MIC)
Method: as §1, §3
aureus COL8A susceptible, […]

[15] = tested on: Pseudomonas Aeruginosa ATCC 27853; assay: MIC, broth microdilution (NCCLS), P. aeruginosa ATCC 27853; type: cell-based; details: ATCC27853, P. aeruginosa ATCC 27853, reference strain, 35° C., 20 h, read-out: Minimal Inhibitory Concentration (MIC)
Method: as §1

[16] = cited from earlier work
[17] = tested on: Gram-positive and Gram-negative bacteria; details: S- versus R-configuration in the heterocyclic portion; cited from earlier work

For CN(C(=O)C[C@H](CCCN(C(=N)NC(=O)OCc1ccccc1)C(=O)OCc1ccccc1)NC(=O)OCc1ccccc1)C1CNC(NC(=O)NC(=O)OCc2ccccc2)=NC1=O (stereo partly shown) [Compound 29], which “t1/2 (tendency to form a bicycle by-product)” value [1] is on record?
Its value is “about 1 day”.

With CC(=O)NC1=NC(=O)C(N(C)C(=O)C[C@@H](N)CCCNC(=N)N)CN1 (stereo partly shown) [Compound 73a, 3S,5'S/R-3-amino-6-[(aminoiminomethyl)amino]-N-(2-acetylamino-1,4,5,6-tetrahydro-4-oxo-5-pyrimidinyl)-N-methyl-hexanamide] as the molecule, how does the MIC [2] read?
The MIC was 128 µg/mL (≈ 361 µM).

And the MIC [3]?
The MIC was 64 µg/mL (≈ 181 µM).

And the MIC [4]?
Its MIC is 16 µg/mL (≈ 45.1 µM).

And the MIC [5]?
Its MIC is 16 µg/mL (≈ 45.1 µM).

What about the MIC [6] of the same molecule?
The MIC was 16 µg/mL (≈ 45.1 µM).

And the MIC [7]?
The MIC was 8 µg/mL (≈ 22.6 µM).

And the MIC [8]?
The MIC was 128 µg/mL (≈ 361 µM).

And the MIC [9]?
The MIC was 16 µg/mL (≈ 45.1 µM).

And the MIC [10]?
Its MIC is 8 µg/mL (≈ 22.6 µM).

And the MIC [11]?
Its MIC is 32 µg/mL (≈ 90.3 µM).

What about the MIC [12] of the same molecule?
The MIC was 128 µg/mL (≈ 361 µM).

What about the MIC (Staphylococcus aureus 76) of the same molecule?
Its MIC is 16 µg/mL (≈ 45.1 µM).

What about the MIC [13] of the same molecule?
Its MIC is 256 µg/mL (≈ 722 µM).

What about the MIC [14] of the same molecule?
The MIC was 16 µg/mL (≈ 45.1 µM).

What about the MIC [15] of the same molecule?
The MIC was 256 µg/mL (≈ 722 µM).

For CN1C(=O)C[C@H](CCCNC(=N)N)NC(=O)[C@H]1CNC(=N)NC(N)=O [TAN-1057C], which “conversion upon standing in water” value [16] is on record?
Its value is “rapidly convert to a mixture of TAN-1057A/B upon standing in water”.

What does the source list for CN1C(=O)C[C@H](CCCNC(=N)N)NC(=O)[C@@H]1CNC(=N)NC(N)=O [TAN-1057D]?
conversion upon standing in water [16]: rapidly convert to a mixture of TAN-1057A/B upon standing in water; relative antibacterial activity of stereoisomers [17]: more active than TAN-1057 B and C
